# Data from PubChem BioAssay AID1963964 (Molecular Pharmacology Branch, DTP, NCI, 2024).
# Tested on: 997726-040-R-J2-PDC tumor spheroids, viability
# Test: Anticancer human tumor 997726-040-R-J2-PDC patient-derived squamous cell lung carcinoma cell line growth inhibition [PI3K]
# Details: spheroids with HUVEC and MSC; for IC50: curve of first compound; for viability, T/C: stronger effect = lower value
# Procedure, shortened: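 Multi-cell spheroids combine tumor cells with HUVEC and human MSCs, treated with targeted agents alone or with inavolisib, alpelisib, duvelisib or copanlisib. Concentrations fall in half-log steps from at or near clinical Cmax, or from 10 microM where Cmax is unknown; viability read-out.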
# [1] = second compound 0.0316 µM, first compound 0.0316 µM
# [2] = second compound 0.0316 µM, first compound 0.1 µM
# [3] = second compound 0.0316 µM, first compound 0.316 µM
# [4] = second compound 0.0316 µM, first compound 1 µM
# [5] = second compound 0.1 µM, first compound 0.0316 µM
# [6] = second compound 0.1 µM, first compound 0.1 µM
# [7] = second compound 0.1 µM, first compound 0.316 µM
# [8] = second compound 0.1 µM, first compound 1 µM
# [9] = second compound 0.316 µM, first compound 0.0316 µM
# [10] = second compound 0.316 µM, first compound 0.1 µM
# [11] = second compound 0.316 µM, first compound 0.316 µM
# [12] = second compound 0.316 µM, first compound 1 µM
# [13] = second compound 1 µM, first compound 0.0316 µM
# [14] = second compound 1 µM, first compound 0.1 µM
# [15] = second compound 1 µM, first compound 0.316 µM
# [16] = second compound 1 µM, first compound 1 µM
# 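Note: spheroids exposed to compounds for seven days before readout.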
smiles,measurement,setting,value
CCCS(=O)(=O)Nc1ccc(F)c(C(=O)c2c[nH]c3ncc(-c4ccc(Cl)cc4)cc23)c1F + CC(Nc1ccc2c(c1)OCCn1cc(N3C(=O)OCC3C(F)F)nc1-2)C(N)=O,IC50,second compound 0.00316 µM,6540 nM
same,IC50,second compound 0.01 µM,6210 nM
same,IC50,second compound 0.0316 µM,4990 nM
same,IC50,second compound 0.1 µM,3460 nM
same,IC50,second compound 0.316 µM,< 31.6 nM
same,IC50,second compound 1 µM,< 31.6 nM
same,"viability, T/C","second compound 0.00316 µM, first compound 0.0316 µM",83.8%
same,"viability, T/C","second compound 0.00316 µM, first compound 0.1 µM",101%
same,"viability, T/C","second compound 0.00316 µM, first compound 0.316 µM",98.2%
same,"viability, T/C","second compound 0.00316 µM, first compound 1 µM",108%
same,"viability, T/C","second compound 0.00316 µM, first compound 3.16 µM",107%
same,"viability, T/C","second compound 0.00316 µM, first compound 10 µM",20.9%
same,"viability, T/C","second compound 0.01 µM, first compound 0.0316 µM",76.5%
same,"viability, T/C","second compound 0.01 µM, first compound 0.1 µM",94.7%
same,"viability, T/C","second compound 0.01 µM, first compound 0.316 µM",90.7%
same,"viability, T/C","second compound 0.01 µM, first compound 1 µM",90.3%
same,"viability, T/C","second compound 0.01 µM, first compound 3.16 µM",97.1%
same,"viability, T/C","second compound 0.01 µM, first compound 10 µM",21.8%
same,"viability, T/C",[1],65.1%
same,"viability, T/C",[2],64.1%
same,"viability, T/C",[3],72.4%
same,"viability, T/C",[4],72%
same,"viability, T/C","second compound 0.0316 µM, first compound 3.16 µM",70.3%
same,"viability, T/C","second compound 0.0316 µM, first compound 10 µM",21.8%
same,"viability, T/C",[5],54.6%
same,"viability, T/C",[6],53.1%
same,"viability, T/C",[7],49.4%
same,"viability, T/C",[8],51.9%
same,"viability, T/C","second compound 0.1 µM, first compound 3.16 µM",52.9%
same,"viability, T/C","second compound 0.1 µM, first compound 10 µM",22.6%
same,"viability, T/C",[9],35.6%
same,"viability, T/C",[10],36.8%
same,"viability, T/C",[11],40.1%
same,"viability, T/C",[12],43.6%
same,"viability, T/C","second compound 0.316 µM, first compound 3.16 µM",39.8%
same,"viability, T/C","second compound 0.316 µM, first compound 10 µM",17.3%
same,"viability, T/C",[13],35.6%
same,"viability, T/C",[14],28.7%
same,"viability, T/C",[15],29.8%
same,"viability, T/C",[16],32.5%
same,"viability, T/C","second compound 1 µM, first compound 3.16 µM",30.9%
same,"viability, T/C","second compound 1 µM, first compound 10 µM",16.1%
CCN1CCN(Cc2ccc(Nc3ncc(F)c(-c4cc(F)c5nc(C)n(C(C)C)c5c4)n3)nc2)CC1 + Cc1nc(NC(=O)N2CCCC2C(N)=O)sc1-c1ccnc(C(C)(C)C(F)(F)F)c1,IC50,second compound 0.0316 µM,> 1000 nM
same,IC50,second compound 0.1 µM,466 nM
same,IC50,second compound 0.316 µM,7.34 nM
same,IC50,second compound 1 µM,< 3.16 nM
same,IC50,second compound 3.16 µM,< 3.16 nM
same,IC50,second compound 10 µM,< 3.16 nM
same,"viability, T/C","second compound 0.0316 µM, first compound 0.00316 µM",82.8%
same,"viability, T/C","second compound 0.0316 µM, first compound 0.01 µM",79.5%
same,"viability, T/C",[1],61.5%
same,"viability, T/C",[2],69.5%
same,"viability, T/C",[3],58.3%
same,"viability, T/C",[4],59.8%
same,"viability, T/C","second compound 0.1 µM, first compound 0.00316 µM",76.7%
same,"viability, T/C","second compound 0.1 µM, first compound 0.01 µM",71.1%
same,"viability, T/C",[5],67.3%
same,"viability, T/C",[6],55.2%
same,"viability, T/C",[7],52.3%
same,"viability, T/C",[8],46.3%
same,"viability, T/C","second compound 0.316 µM, first compound 0.00316 µM",52.5%
same,"viability, T/C","second compound 0.316 µM, first compound 0.01 µM",51.8%
same,"viability, T/C",[9],45%
same,"viability, T/C",[10],39%
same,"viability, T/C",[11],37.1%
same,"viability, T/C",[12],41.1%
same,"viability, T/C","second compound 1 µM, first compound 0.00316 µM",40.8%
same,"viability, T/C","second compound 1 µM, first compound 0.01 µM",39.5%
same,"viability, T/C",[13],37%
same,"viability, T/C",[14],30.9%
same,"viability, T/C",[15],29%
same,"viability, T/C",[16],33.8%
same,"viability, T/C","second compound 3.16 µM, first compound 0.00316 µM",29.9%
same,"viability, T/C","second compound 3.16 µM, first compound 0.01 µM",27%
same,"viability, T/C","second compound 3.16 µM, first compound 0.0316 µM",26%
same,"viability, T/C","second compound 3.16 µM, first compound 0.1 µM",22.9%
same,"viability, T/C","second compound 3.16 µM, first compound 0.316 µM",23.4%
same,"viability, T/C","second compound 3.16 µM, first compound 1 µM",19.5%
same,"viability, T/C","second compound 10 µM, first compound 0.00316 µM",16.9%
same,"viability, T/C","second compound 10 µM, first compound 0.01 µM",12.3%
same,"viability, T/C","second compound 10 µM, first compound 0.0316 µM",10.3%
same,"viability, T/C","second compound 10 µM, first compound 0.1 µM",10.9%
same,"viability, T/C","second compound 10 µM, first compound 0.316 µM",11.9%
same,"viability, T/C","second compound 10 µM, first compound 1 µM",11.2%
